Experimental data from article PMC11172786, “Melatonin-Regulated Chaperone Binding Protein Plays a Key Role in Cadmium Stress Tolerance in Rice, Revealed by the Functional Characterization of a Novel Serotonin N-Acetyltransferase 3 (SNAT3) in Rice” (International Journal of Molecular Sciences, 2024).

T1: OsSNAT3 (OsSNAT3-His6) (Oryza sativa, UniProt B7F8K4)
T1 construct: cDNA-derived N-terminus MGAGEG, C-terminus QAATKK
T1 sequence (B7F8K4 1-179): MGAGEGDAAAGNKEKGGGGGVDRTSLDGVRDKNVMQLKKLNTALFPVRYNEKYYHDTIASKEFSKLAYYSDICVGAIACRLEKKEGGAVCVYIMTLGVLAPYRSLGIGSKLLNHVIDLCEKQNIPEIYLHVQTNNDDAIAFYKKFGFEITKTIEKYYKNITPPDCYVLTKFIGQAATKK

B1: OsSNAT3 (OsSNAT3-His6) (Oryza sativa Japonica Group) (protein)
chain: T1 sequence (B7F8K4 1-179)
notes: cDNA-derived N-terminus MGAGEG, C-terminus QAATKK

Assays:
[1] = target: T1, OsSNAT3 (OsSNAT3-His6); test: inhibition of serotonin N-acetylation, HPLC; assay type: biochemical; settings: 0.5 mM serotonin and 0.5 mM amine, pH 8.8, 55 °C; possible alternative substrate; tag form not stated for this figure
[2] = substrate: NCCc1c[nH]c2ccc(O)cc12; test: HPLC detection of N-acetylserotonin, Lineweaver-Burk; assay type: biochemical, Oryza sativa; settings: 0.5 mM acetyl-CoA, 100 mM potassium phosphate pH 8.8, 45 °C
[3] = substrate: COc1ccc2[nH]cc(CCN)c2c1; test: HPLC detection of melatonin, Lineweaver-Burk; assay type: biochemical, Oryza sativa; settings: 0.5 mM acetyl-CoA, 100 mM potassium phosphate pH 8.8, 45 °C

Row | Molecule | SNAT activity with 0.5 mM amine [1] | Km [2] [µM] | Km [3] [µM]
1 | NCCc1ccc(O)c(O)c1 [dopamine] | significantly inhibited by putrescine and dopamine | – | –
2 | NC[C@H](O)c1ccc(O)cc1 [octopamine] | OsSNAT3 activity was strongly inhibited by spermidine and octopamine (Figure 3C) | – | –
3 | NCCCCN [putrescine] | significantly inhibited by putrescine and dopamine | – | –
4 | NCCCCNCCCN [spermidine] | OsSNAT3 activity was strongly inhibited by spermidine and octopamine (Figure 3C) | – | –
5 | B1 | – | 1152 | 1587
